According to US20250228983A1, “PROBES FOR CELLULAR SENESCENCE” (UNIVERSITY OF FLORIDA RESEARCH FOUNDATION, INCORPORATED, priority 2022, published 2025):

Assays:
[1] = biological target: recombinant β-galactosidase (β-gal) (Escherichia coli, UniProt P00722); assay: In gel fluorescence labeling efficiency on recombinant β-galactosidase; type: biochemical; settings: 10 μM probe, 10 units β-gal and/or 50 μg BSA, 50 μL PBS, 37° C., 2 h; compared with NIR-BG2
Method: (§1) FIG. 4. Compare labeling efficiency using in gel fluorescence. 10 μM of NIR-BG2, NIR-BG3 or NIR-BG4 is incubated with 10 units of β-gal and/or 50 μg of BSA in total volume of 50 μL PBS solution were incubated at 37° C. for 2 h. Each lane was loaded with 10 μL of the reaction solution.
(§2) In certain examples, two carbamate analogues were synthesized: NIR-BG3 carrying ethyl carbamate and NIR-BG4 carrying an endocyclic carbamate. To compare these two analogues with NIR-BG2, the three probes were incubated with recombinant β-galactosidase (p-gal) and bovine serum albumin (BSA) and the labeling efficiency of these probes on P-gal and BSA was compared using gel electrophoresis.

[2] = biological target: bovine serum albumin (BSA) (Bos taurus, UniProt P02769); assay: In gel fluorescence nonspecific labeling of BSA; type: biochemical; settings: 10 μM probe, 50 μg BSA, 50 μL PBS, 37° C., 2 h; compared with NIR-BG2
bovine serum albumin (BSA), sequence (P02769 25-607): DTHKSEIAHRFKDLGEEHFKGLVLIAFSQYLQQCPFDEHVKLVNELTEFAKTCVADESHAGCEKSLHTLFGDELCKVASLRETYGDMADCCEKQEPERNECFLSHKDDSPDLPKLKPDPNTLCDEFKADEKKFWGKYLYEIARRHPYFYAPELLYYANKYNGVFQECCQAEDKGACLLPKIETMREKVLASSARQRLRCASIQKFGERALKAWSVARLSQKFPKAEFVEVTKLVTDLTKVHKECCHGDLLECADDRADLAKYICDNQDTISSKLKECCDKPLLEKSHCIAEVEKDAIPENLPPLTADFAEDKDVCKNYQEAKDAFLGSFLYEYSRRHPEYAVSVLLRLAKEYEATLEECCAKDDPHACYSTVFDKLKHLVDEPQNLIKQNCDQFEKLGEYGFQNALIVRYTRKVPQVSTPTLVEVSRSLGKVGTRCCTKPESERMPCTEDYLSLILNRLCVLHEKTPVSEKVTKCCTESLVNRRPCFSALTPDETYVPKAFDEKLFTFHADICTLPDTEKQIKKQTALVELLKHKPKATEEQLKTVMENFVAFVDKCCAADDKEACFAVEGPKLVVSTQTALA
Method: as §1, §2

[3] = tested on: CT26.WT and CT26.CL25 cells (stably transfected with LacZ); assay: Fluorescent cell imaging and flow cytometry of CT26.WT and CT26.CL25 cells; type: cell-based; settings: 10 μM probe
Method: FIG. 5. FIG. 5A: Fluorescent cell imaging of CT26. WT and CT26.CL25 cells after incubating with 10 μM of NIR-BG2 or NIR-BG3 in serum free medium for 2 hours at 37° C. Cells were fixed, permeabilized with 0.5% Triton X-100 and stained with DAPI. Scale bar: […]. FIG. 5B: Flow cytometry and FIG. 5C quantification of fluorescence in CT26.WT and CT26.CL25 cells after incubating with 10 μM of NIR-BG2 or NIR-BG3.
NIR-BG2 and NIR-BG3 were also compared in CT26.WT and CT26.CL25 that are stably transfected with LacZ.

recombinant β-galactosidase (β-gal), sequence (P00722 2-1024): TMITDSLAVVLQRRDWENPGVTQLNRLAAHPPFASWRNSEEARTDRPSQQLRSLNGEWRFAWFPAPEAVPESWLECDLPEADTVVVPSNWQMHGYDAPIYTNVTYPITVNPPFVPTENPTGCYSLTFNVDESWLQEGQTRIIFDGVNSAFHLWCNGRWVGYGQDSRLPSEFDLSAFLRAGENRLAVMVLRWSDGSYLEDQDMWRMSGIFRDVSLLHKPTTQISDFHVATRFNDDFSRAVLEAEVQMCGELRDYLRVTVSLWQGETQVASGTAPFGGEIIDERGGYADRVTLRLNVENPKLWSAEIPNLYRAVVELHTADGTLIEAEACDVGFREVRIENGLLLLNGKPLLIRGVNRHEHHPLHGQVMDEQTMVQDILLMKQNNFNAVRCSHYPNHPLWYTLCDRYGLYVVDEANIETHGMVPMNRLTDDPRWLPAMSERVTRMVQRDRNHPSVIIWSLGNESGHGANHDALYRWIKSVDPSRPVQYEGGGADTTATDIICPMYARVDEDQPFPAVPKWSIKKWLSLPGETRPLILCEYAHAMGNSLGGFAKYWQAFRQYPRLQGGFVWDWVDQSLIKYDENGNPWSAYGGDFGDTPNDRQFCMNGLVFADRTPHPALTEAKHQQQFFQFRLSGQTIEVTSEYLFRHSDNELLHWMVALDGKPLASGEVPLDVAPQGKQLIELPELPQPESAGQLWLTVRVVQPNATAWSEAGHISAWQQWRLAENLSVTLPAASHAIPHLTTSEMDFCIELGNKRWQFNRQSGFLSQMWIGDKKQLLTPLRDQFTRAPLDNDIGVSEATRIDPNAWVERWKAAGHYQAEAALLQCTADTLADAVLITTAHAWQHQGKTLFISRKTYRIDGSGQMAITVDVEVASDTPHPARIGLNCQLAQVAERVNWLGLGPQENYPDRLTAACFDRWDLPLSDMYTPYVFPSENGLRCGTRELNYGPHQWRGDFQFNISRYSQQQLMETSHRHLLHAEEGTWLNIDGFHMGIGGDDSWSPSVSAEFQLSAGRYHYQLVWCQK

| Structure (SMILES) | labeling efficiency (in gel fluorescence) [1] | nonspecific labeling of BSA [2] | contrast for CT26.CL25 cells over CT26.WT ([3]; serum free medium, 2 hours, 37° C.) | mean intensity compared to NIR-BG2 ([3]; FIG. 5) | background by flow cytometry ([3]; compared with NIR-BG2) | fluorescence by flow cytometry ([3]; compared with NIR-BG2) | fluorescent intensity (FIG. 5A and FIG. 5C) ([3]; compared with NIR-BG2) |
| --- | --- | --- | --- | --- | --- | --- | --- |
| CCC[N+]1=C(/C=C/C2=C3Oc4cc(OCc5ccc(O[C@@H]6OC(CO)[C@H](O)[C@H](O)C6O)cc5)c(COC(=O)NCC)cc4C=C3CCC2)C(C)(C)c2ccccc21 (stereo partly drawn) [NIR-BG3] | significantly higher labeling efficiency | slightly higher nonspecific labeling of BSA | strong contrast | about 2 fold | higher background | overall higher fluorescence | much higher than NIR-BG2 |
| CCC[N+]1=C(/C=C/C2=C3Oc4cc(OCc5ccc(O[C@@H]6OC(CO)[C@H](O)[C@H](O)C6O)cc5)c(COC(=O)N5CCCCC5)cc4C=C3CCC2)C(C)(C)c2ccccc21 (stereo partly drawn) [NIR-BG4] | significantly higher labeling efficiency | slightly higher nonspecific labeling of BSA |  |  |  |  |  |
